From patent US10195189B2, “2-phenethenyltetrahydro isoquinolines useful as anti-HIV compounds” (priority 2014, dated 2019)

system: HIV-1 NL4-3 viral clone expressing Renilla luciferase; experiment: microbe, parasite or virus in culture; format: cell-based; conditions: Human immunodeficiency virus 1, NL43, MT2, 96 h
How it was run: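 MT-2 cells (2×10^4/well) were infected at MOI 0.027 with Renilla-luciferase HIV-1 NL4-3 alongside 3-fold compound dilutions for 96 h. Spread was read by EnduRen luminescence and supernatant infectivity on TZM-bl (48 h, MUG fluorescence). Mock-infected cytotoxicity used AlamarBlue. % inhibition versus solvent was fitted by 4-parameter logistic (0–100% constrained) for EC50/CC50.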

Structure (SMILES)	EC50
COc1cc2c(cc1OCc1ccccc1)CCNC2c1cc(OCc2ccccc2)c(OC)cc1C (stereo not shown) [AY, 6-(Benzyloxy)-1-(5-(benzyloxy)-4-methoxy-2-methylphenyl)-7-methoxy-1,2,3,4-tetrahydroisoquinoline]	4880 nM
COc1cc2c(cc1OCc1ccccc1)CCNC2/C=C/c1cc(OCC(C)(C)C)c(OC)cc1C (stereo not shown) [BX, 6-Benzyloxy-1-[(E)-2-[5-(2,2-dimethylpropoxy)-4-methoxy-2-methyl-phenyl]vinyl]-7-methoxy-1,2,3,4-tetrahydroisoquinoline]	350 nM
COc1cc2c(cc1OCc1ccccc1)CCNC2/C=C/c1ccc(-c2ccccn2)cc1 (stereo not shown) [DZ, 6-Benzyloxy-7-methoxy-1-[(E)-2-[4-(2-pyridyl)phenyl]vinyl]-1,2,3,4-tetrahydroisoquinoline]	650 nM
CCOC(=O)c1coc(-c2cccc(/C=C/C3NCCc4cc(OCc5ccccc5)c(OC)cc43)c2)n1 (stereo not shown) [EF, Ethyl 2-[3-[(E)-2-(6-benzyloxy-7-methoxy-1,2,3,4-tetrahydroisoquinolin-1-yl)vinyl]phenyl]oxazole-4-carboxylate]	1000 nM
COc1cc2c(cc1OCc1ccccc1)CCNC2/C=C/c1ccc2cccnc2c1 (stereo not drawn) [DL, (E)-7-(2-(6-(benzyloxy)-7-methoxy-1,2,3,4-tetrahydroisoquinolin-1-yl)vinyl)quinoline]	96.9 nM
CCCCOc1cc(/C=C/C2NCCc3cc(OCc4ccccc4)c(OC)cc32)ccc1OC (stereo not shown) [BE, 6-Benzyloxy-1-[(E)-2-(3-butoxy-4-methoxy-phenyl)vinyl]-7-methoxy-1,2,3,4-tetrahydroisoquinoline]	99.8 nM
COc1cc2c(cc1OCc1ccccc1)CCNC2/C=C/c1cc(OCc2ccccc2)ccc1C (stereo not shown) [Example AD, 6-benzyloxy-1-[(E)-2-(5-benzyloxy-2-methyl-phenyl)vinyl]-7-methoxy-1,2,3,4-tetrahydroisoquinoline]	84 nM
COc1cc(C)c(/C=C/C2c3cc(OC)c(OCc4ccccc4)cc3CCN2C)cc1OCc1ccccc1 (stereo not shown) [Example E, 6-Benzyloxy-1-[(E)-2-(5-benzyloxy-4-methoxy-2-methyl-phenyl)vinyl]-7-methoxy-2-methyl-3,4-dihydro-1H-isoquinoline]	8470 nM
COc1ccc(/C=C/C2NCCc3cc(OCc4ccccc4)c(OC)cc32)cc1Cn1ccnc1C (stereo not shown) [EN, 6-Benzyloxy-7-methoxy-1-[(E)-2-[4-methoxy-3-[(2-methylimidazol-1-yl)methyl]phenyl]vinyl]-1,2,3,4-tetrahydroisoquinolin]	189 nM
COc1ccc(/C=C/C2NCCc3cc(OCc4ccccc4)c(OC)cc32)cc1OCc1ccccc1 (stereo not shown) [Example AB, 6-benzyloxy-1-[(E)-2-(3-benzyloxy-4-methoxy-phenyl)vinyl]-7-methoxy-1,2,3,4-tetrahydroisoquinoline]	146 nM
COc1cc2c(cc1OCc1ccccc1)CCNC2/C=C/c1ccc(-c2cccnc2)cc1 (stereo not shown) [DJ]	393 nM
COc1cc(/C=C/C2NCCc3cc(OC)c(OCc4ccccc4)cc32)ccc1OCc1ccccc1 (stereo not shown) [Example S, 7-benzyloxy-1-[(E)-2-(4-benzyloxy-3-methoxy-phenyl)vinyl]-6-methoxy-1,2,3,4-tetrahydroisoquinoline]	992 nM
COc1cc(OC)c(/C=C/C2NCCc3cc(OCc4ccccc4)c(OC)cc32)cc1C (stereo not shown) [EH, 6-Benzyloxy-1-[(E)-2-(2,4-dimethoxy-5-methyl-phenyl)vinyl]-7-methoxy-1,2,3,4-tetrahydroisoquinolin]	66 nM
COc1ccc(/C=C/C2NCCc3cc(OCc4ccccc4)c(OC)cc32)c(OC)n1 (stereo not shown) [CA, 6-Benzyloxy-1-[(E)-2-(2,6-dimethoxy-3-pyridyl)vinyl]-7-methoxy-1,2,3,4-tetrahydroisoquinoline]	640 nM
CCn1cc(/C=C/C2NCCc3cc(OCc4ccccc4)c(OC)cc32)cn1 (stereo not shown) [Example AL, 6-Benzyloxy-1-[(E)-2-(1-ethylpyrazol-4-yl)vinyl]-7-methoxy-1,2,3,4-tetrahydroisoquinoline]	2950 nM
COc1cc2c(cc1OCc1ccccc1)CCNC2/C=C/c1ccc(OC(F)(F)F)cc1C (stereo not shown) [Example AJ, (E)-6-(benzyloxy)-7-methoxy-1-(2-methyl-4-(trifluoromethoxy)styryl)-1,2,3,4-tetrahydroisoquinoline]	2740 nM
COc1ccc(/C=C/C2NCCc3cc(OCc4ccccc4)c(OC)cc32)c(C)c1 (stereo not shown) [Example AG, 6-benzyloxy-7-methoxy-1-[(E)-2-(4-methoxy-2-methyl-phenyl)vinyl]-1,2,3,4-tetrahydroisoquinoline]	77.1 nM
COc1cc2c(cc1OCc1ccccc1)CCNC2c1ccccc1CNC(=O)OC(C)(C)C (stereo not shown) [AZ, tert-Butyl N-[[2-(6-benzyloxy-7-methoxy-1,2,3,4-tetrahydroisoquinolin-1-yl)phenyl]methyl]carbamate]	2770 nM
COCCOc1ccccc1/C=C/C1NCCc2cc(OCc3ccccc3)c(OC)cc21 (stereo not shown) [DE, (E)-6-(benzyloxy)-7-methoxy-1-(2-(2-methoxyethoxy)styryl)-1,2,3,4-tetrahydroisoquinoline]	1440 nM
COc1cc2c(cc1OCc1ccccc1)CCNC2/C=C/c1cn(C(=O)OC(C)(C)C)c2ccccc12 (stereo not shown) [CI, tert-Butyl 3-[(E)-2-(6-benzyloxy-7-methoxy-1,2,3,4-tetrahydroisoquinolin-1-yl)vinyl]indole-1-carboxylate]	230 nM
COc1cc2c(cc1OCc1ccccc1)CCNC2/C=C/c1cccc(-c2ncco2)c1 (stereo not shown) [EC, 2-[3-[(E)-2-(6-Benzyloxy-7-methoxy-1,2,3,4-tetrahydroisoquinolin-1-yl)vinyl]phenyl]oxazole]	930 nM
COc1cc2c(cc1OCc1ccccc1)CCNC2/C=C/c1ccccc1C (stereo not shown) [Example W, 6-benzyloxy-7-methoxy-1-[(E)-2-(o-tolyl)vinyl]-1,2,3,4-tetrahydroisoquinoline]	690 nM
COc1cc2c(cc1OCc1ccccc1)CCNC2/C=C/c1cscn1 (stereo not shown) [DR, 6-(Benzyloxy)-7-methoxy-1-[(E)-2-(1,3-thiazol-4-yl)ethenyl]-1,2,3,4-tetrahydroisoquinolin]	4820 nM
COc1cc2c(cc1OCc1ccccc1)CCNC2/C=C/c1cccc2c1OCCC2 (stereo not shown) [CF, 6-Benzyloxy-1-[(E)-2-chroman-8-ylvinyl]-7-methoxy-1,2,3,4-tetrahydroisoquinoline]	490 nM
COc1cc(C)c(/C=C/C2NCCc3cc(OCc4ccccc4)c(OC)cc32)c(C)c1 (stereo not shown) [BA, 6-Benzyloxy-7-methoxy-1-[(E)-2-(4-methoxy-2,6-dimethyl-phenyl)vinyl]-1,2,3,4-tetrahydroisoquinoline]	497 nM
COc1cc(Cl)c(/C=C/C2NCCc3cc(OCc4ccccc4)c(OC)cc32)cc1OCc1ccccc1 (stereo not shown) [Example AC, 6-benzyloxy-1-[(E)-2-(5-benzyloxy-2-chloro-4-methoxy-phenyl)vinyl]-7-methoxy-1,2,3,4-tetrahydroisoquinoline]	87.2 nM
COc1ccc(/C=C/C2NCCc3cc(OCc4ccccc4)c(OC)cc32)cn1 (stereo not shown) [AX, 6-Benzyloxy-7-methoxy-1-[(E)-2-(6-methoxy-3-pyridyl)vinyl]-1,2,3,4-tetrahydroisoquinoline]	3280 nM
CCc1cc(OC)c(OCc2ccccc2)cc1/C=C/C1NCCc2cc(OCc3ccccc3)c(OC)cc21 (stereo not shown) [Example AA, 6-benzyloxy-1-[(E)-2-(5-benzyloxy-2-ethyl-4-methoxy-phenyl)vinyl]-7-methoxy-1,2,3,4-tetrahydroisoquinoline]	148 nM
